Assay results reported in ChEMBL document CHEMBL5465560, “Selectivity Literature for EUbOPEN Chemogenomic Library” (2024).

Columns and labels:
[1] = molecular target: RAC-gamma serine/threonine-protein kinase (Homo sapiens, UniProt Q9Y243); assay: Selectivity interaction (Kinase panel (Z-LYTE Assay)) EUB0001632a AKT3; conditions: at 10 µM
[2] = molecular target: Cyclin-dependent kinase 14 (Homo sapiens) (UniProt O94921); assay: Selectivity interaction (KinomeScan (DiscoverX)) EUB0000666a CDK14; conditions: at 10 µM
Sequence of Cyclin-dependent kinase 14 (Homo sapiens) (O94921 whole entry): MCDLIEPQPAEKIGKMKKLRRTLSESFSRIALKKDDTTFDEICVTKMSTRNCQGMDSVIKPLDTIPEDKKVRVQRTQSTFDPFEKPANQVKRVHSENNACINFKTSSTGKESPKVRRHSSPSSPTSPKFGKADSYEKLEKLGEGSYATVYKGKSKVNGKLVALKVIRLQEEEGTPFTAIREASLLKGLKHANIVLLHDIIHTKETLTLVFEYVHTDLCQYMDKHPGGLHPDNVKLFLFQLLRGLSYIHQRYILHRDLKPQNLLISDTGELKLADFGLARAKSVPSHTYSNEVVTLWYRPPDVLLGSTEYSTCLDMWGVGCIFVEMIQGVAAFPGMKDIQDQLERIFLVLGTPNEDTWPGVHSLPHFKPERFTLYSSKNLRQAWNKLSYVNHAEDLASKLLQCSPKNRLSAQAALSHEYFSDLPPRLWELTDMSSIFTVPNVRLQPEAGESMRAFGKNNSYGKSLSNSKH

[3] = molecular target: Casein kinase II subunit alpha' (Homo sapiens) (UniProt P19784); assay: Selectivity interaction (KinomeScan (DiscoverX)) EUB0000666a CSNK2A2; conditions: at 10 µM
Sequence of Casein kinase II subunit alpha' (Homo sapiens) (P19784 whole entry, looked up): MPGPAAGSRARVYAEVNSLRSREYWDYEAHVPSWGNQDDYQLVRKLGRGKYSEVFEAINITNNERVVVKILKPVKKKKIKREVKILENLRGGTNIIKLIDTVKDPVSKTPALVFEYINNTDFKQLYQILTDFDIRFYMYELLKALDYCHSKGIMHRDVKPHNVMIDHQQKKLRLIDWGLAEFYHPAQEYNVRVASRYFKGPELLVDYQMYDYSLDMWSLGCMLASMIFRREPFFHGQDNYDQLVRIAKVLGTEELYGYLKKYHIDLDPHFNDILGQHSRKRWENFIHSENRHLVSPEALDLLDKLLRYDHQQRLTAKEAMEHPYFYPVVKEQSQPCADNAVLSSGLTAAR

[4] = molecular target: T1, Tyrosine-protein kinase JAK3 (Homo sapiens, UniProt P52333); assay: Selectivity interaction (Kinase panel (33PanQinase(R) Activity Assay)) EUB0000877a JAK3
T1 sequence (P52333 whole entry): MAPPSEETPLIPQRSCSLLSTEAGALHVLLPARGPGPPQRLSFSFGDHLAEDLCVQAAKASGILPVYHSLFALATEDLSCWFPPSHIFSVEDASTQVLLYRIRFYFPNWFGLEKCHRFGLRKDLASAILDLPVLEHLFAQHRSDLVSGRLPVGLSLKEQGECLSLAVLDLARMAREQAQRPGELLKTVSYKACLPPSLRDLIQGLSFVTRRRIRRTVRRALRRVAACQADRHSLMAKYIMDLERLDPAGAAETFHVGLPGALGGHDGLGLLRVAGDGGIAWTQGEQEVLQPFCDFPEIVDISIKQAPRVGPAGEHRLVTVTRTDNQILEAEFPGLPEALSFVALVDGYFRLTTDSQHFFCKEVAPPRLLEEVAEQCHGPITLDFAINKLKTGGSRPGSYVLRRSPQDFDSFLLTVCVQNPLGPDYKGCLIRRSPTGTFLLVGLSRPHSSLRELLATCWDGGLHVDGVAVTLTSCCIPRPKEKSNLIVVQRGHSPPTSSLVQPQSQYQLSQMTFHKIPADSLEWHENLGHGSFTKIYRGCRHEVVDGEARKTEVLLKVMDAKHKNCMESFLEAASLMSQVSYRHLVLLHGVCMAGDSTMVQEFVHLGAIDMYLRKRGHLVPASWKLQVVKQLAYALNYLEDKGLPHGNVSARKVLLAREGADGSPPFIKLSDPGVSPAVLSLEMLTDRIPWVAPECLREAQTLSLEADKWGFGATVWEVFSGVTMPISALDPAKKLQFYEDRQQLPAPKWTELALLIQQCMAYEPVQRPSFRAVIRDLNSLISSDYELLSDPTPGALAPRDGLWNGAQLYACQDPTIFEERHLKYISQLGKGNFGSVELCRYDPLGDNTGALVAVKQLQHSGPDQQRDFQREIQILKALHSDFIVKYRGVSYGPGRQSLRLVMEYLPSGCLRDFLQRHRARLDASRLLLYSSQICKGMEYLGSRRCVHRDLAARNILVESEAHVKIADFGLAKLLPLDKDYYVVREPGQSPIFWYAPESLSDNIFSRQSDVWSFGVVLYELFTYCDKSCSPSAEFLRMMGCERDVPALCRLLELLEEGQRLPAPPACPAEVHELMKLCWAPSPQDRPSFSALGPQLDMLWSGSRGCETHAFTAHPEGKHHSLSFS

[5] = molecular target: Cyclin-dependent kinase 16 (Homo sapiens) (UniProt Q00536); assay: Selectivity interaction (ActivX KiNativ screen (kinase selectivity in THP-1 cell lysates)) EUB0000639a CDK16; type: subcellular; conditions: lysate, at 1 µM
Sequence of Cyclin-dependent kinase 16 (Homo sapiens) (Q00536 whole entry): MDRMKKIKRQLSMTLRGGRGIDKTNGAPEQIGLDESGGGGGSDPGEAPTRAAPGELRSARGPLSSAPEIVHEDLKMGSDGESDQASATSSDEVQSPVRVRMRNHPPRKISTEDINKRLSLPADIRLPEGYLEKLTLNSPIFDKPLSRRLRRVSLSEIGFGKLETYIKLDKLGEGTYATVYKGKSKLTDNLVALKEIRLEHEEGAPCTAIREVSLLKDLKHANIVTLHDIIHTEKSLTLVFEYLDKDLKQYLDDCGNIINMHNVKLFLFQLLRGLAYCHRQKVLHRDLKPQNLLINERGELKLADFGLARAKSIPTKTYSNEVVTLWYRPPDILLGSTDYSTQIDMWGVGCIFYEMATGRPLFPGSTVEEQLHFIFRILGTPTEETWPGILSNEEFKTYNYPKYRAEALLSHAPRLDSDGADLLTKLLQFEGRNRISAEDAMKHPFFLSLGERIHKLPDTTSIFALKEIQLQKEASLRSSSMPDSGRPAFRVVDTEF

[6] = molecular target: cAMP-dependent protein kinase catalytic subunit beta (Homo sapiens) (UniProt P22694); assay: Selectivity interaction (KinomeScan (DiscoverX)) EUB0000695a PRKACB; conditions: at 100 nM
[7] = molecular target: Cyclin-dependent kinase 1/cyclin B (Homo sapiens) (UniProt P06493+P14635+Q8WWL7+O95067); assay: Selectivity interaction (Millipore kinase profiler) EUB0000124b CDK1; type: protein-complex assay; conditions: at 10 µM
[8] = molecular target: Serine/threonine-protein kinase MARK1 (Homo sapiens) (UniProt Q9P0L2); assay: Selectivity interaction (KinomeScan (DiscoverX)) EUB0000092b MARK1; conditions: at 10 µM
Sequence of Serine/threonine-protein kinase MARK1 (Homo sapiens) (Q9P0L2 whole entry, looked up): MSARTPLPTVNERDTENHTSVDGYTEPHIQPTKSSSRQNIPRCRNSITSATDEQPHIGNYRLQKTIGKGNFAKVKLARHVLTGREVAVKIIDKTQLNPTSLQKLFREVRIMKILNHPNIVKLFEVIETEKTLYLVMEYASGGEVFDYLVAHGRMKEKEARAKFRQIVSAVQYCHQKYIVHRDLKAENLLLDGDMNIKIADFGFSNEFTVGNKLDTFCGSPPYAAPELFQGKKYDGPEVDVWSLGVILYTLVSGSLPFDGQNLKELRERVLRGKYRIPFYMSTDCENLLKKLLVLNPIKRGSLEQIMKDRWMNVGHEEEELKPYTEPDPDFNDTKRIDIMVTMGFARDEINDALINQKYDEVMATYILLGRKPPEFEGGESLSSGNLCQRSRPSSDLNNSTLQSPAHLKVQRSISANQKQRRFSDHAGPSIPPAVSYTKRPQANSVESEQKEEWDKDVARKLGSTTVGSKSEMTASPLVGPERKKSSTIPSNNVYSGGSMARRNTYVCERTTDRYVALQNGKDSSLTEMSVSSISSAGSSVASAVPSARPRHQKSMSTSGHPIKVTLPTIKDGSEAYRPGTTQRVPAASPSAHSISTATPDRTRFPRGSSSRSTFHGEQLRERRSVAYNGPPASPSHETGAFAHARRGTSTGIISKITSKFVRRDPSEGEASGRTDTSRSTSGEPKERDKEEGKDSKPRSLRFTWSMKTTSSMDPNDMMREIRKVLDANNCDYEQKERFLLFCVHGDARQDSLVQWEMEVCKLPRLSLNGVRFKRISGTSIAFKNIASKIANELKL

[9] = molecular target: T2, Serine/threonine-protein kinase 36 (Homo sapiens) (UniProt Q9NRP7); conditions: at 10 µM
T2 sequence (whole entry): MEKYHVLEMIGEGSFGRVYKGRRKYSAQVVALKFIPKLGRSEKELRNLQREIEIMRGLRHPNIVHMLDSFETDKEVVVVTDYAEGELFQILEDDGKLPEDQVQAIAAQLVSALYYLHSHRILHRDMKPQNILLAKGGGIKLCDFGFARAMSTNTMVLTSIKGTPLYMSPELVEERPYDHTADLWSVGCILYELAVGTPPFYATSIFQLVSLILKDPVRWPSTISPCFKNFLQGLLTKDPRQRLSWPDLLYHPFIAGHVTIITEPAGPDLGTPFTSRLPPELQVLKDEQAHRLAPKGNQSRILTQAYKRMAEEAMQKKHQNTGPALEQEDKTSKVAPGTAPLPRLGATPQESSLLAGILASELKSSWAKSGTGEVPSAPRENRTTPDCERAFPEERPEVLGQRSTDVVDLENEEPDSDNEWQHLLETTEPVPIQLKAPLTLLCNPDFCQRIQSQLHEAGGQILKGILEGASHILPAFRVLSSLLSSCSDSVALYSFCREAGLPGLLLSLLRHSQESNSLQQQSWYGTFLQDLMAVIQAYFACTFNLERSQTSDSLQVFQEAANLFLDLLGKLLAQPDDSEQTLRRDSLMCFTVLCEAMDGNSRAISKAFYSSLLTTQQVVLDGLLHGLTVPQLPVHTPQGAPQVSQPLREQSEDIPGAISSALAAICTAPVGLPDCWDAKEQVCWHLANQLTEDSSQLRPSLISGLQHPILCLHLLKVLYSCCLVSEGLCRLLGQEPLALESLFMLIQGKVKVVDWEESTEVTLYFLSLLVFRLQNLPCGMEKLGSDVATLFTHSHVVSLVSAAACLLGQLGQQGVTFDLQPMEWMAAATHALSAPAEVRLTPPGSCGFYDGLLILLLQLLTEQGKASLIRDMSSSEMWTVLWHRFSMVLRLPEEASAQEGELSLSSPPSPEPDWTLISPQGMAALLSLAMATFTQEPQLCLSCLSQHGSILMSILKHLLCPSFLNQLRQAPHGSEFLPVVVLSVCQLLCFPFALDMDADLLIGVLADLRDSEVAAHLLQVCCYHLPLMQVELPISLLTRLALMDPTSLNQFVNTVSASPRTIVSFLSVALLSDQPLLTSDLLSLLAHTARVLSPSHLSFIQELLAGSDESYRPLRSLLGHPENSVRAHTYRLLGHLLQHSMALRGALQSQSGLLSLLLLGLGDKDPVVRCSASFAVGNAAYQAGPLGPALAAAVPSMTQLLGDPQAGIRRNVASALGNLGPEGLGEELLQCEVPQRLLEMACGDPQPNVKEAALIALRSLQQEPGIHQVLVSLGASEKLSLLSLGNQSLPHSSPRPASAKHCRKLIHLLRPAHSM

[10] = molecular target: TGF-beta receptor type-2 (Homo sapiens) (UniProt P37173); conditions: at 10 µM
Sequence of TGF-beta receptor type-2 (Homo sapiens) (P37173 whole entry): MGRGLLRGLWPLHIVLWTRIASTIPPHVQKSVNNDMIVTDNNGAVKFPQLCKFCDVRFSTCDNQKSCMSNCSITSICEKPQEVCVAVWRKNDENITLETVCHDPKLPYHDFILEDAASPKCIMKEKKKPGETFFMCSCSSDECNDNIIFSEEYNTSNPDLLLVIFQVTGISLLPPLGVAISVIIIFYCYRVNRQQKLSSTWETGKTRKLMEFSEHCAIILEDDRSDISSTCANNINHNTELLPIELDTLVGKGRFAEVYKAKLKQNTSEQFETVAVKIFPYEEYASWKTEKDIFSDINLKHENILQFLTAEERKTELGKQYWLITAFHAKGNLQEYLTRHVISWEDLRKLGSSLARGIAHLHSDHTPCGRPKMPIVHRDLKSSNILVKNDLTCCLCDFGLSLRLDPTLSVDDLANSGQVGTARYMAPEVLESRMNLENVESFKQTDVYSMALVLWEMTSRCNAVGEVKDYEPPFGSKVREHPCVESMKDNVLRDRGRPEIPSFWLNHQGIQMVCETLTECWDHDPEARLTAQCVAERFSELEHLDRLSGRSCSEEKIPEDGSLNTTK

Sequence of RAC-gamma serine/threonine-protein kinase (Q9Y243 whole entry): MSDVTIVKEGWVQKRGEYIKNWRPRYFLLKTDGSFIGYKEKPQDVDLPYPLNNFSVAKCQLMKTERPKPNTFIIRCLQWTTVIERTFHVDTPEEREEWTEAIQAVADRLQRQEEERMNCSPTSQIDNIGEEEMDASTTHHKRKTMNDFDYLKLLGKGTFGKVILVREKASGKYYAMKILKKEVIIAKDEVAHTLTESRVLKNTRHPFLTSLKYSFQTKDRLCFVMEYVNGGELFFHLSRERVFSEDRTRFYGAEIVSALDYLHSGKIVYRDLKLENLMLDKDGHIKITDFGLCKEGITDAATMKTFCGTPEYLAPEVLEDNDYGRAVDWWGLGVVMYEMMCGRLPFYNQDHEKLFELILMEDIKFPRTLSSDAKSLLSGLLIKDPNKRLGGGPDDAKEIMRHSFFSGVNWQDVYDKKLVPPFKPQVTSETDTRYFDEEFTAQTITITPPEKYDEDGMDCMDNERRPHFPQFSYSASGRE

In the case of `Cn1cc(-n2cnc3c(NCc4nc5cc(Cl)c(Cl)cc5[nH]4)nc(N4CCOCC4)nc32)cn1`, the % of control [1] is reported as 2.65%.
For `O=C(NOC[C@H](O)CO)c1ccc(F)c(F)c1Nc1ccc(I)cc1F`, the % of control [2] was 100% and the % of control [3] was 100%.
`CCC(=O)N1CC[C@H](Nc2ncnc3c2CN(c2cnc(OC)c(C(F)(F)F)c2)CC3)C1` [LENIOLISIB] showed an IC50 [4] of over 10 µM.
With `CC[C@@H]1[C@H](F)C(=O)N[C@@H]1COc1nccc2cc(C(N)=O)c(OC)cc12` [ZIMLOVISERTIB] the % of inhibition [5] was 7.7%.
In the case of `Cc1cc(F)c(C(=O)Nc2cccc(-c3nncn3C(C)C)n2)cc1-n1cnc(C2CC2)c1`, the % of control [6] is reported as 100%.
In the case of `CC(=O)Nc1cccc(-n2c(=O)n(C3CC3)c(=O)c3c(Nc4ccc(I)cc4F)n(C)c(=O)c(C)c32)c1`, the % of control [7] is reported as 104%.
For `CCC(=O)N1CCN(c2ccc(-n3c(=O)ccc4cnc5ccc(-c6cnc7ccccc7c6)cc5c43)cc2C(F)(F)F)CC1`, the % of control [8] was 100%.
`Cc1cc([C@@H](C)Nc2ccccc2C(=O)O)c2nc(N3CCOCC3)cc(=O)n2c1` [AZD-6482] showed a % of control [9] of 100% and a % of control [10] of 95%.
